Experimental data published in article PMC8667930, “Novel sulphonamide-bearing methoxyquinazolinone derivatives as anticancer and apoptosis inducers: synthesis, biological evaluation and in silico studies” (Journal of Enzyme Inhibition and Medicinal Chemistry, 2021).

How the values were obtained:
[1] = test system: A549 cells (non-small cell lung carcinoma); experiment: MTT cytotoxicity assay, A549; format: cell-based; conditions: Homo sapiens, A549, 48 h treatment, mean ± SD (n = 3), NA = no activity
Method: (§1) The MTT assay was performed to test the antiproliferative activity of the synthesised compounds, as per the methodology described by Alqahtani and co-workers[35]. Briefly, A549, HepG2, LoVo, MCF-7 and HUVEC cell lines were seeded in 96-cell culture plates (5 × 10^4 per well) and allowed 24 h for adherence. The cells were then treated with different concentrations of each compound, and 5-fluorouracil was used as a positive control. Following the treatment period (48 h), 10 µL of MTT solution (5 mg/mL) was added to each well and the plates were incubated at 37 °C for 2–4 h. Isopropanol (100 µL) acidified with 0.1 N HCl was added to solubilise the formazan products and the plate was kept on a shaker for 10 min. The optical density of each mixture was measured at 570 nm using an enzyme-linked immunosorbent assay plate reader (ELISA plate reader, Bio-Tek, USA). The concentrations of tested compounds required to inhibit cell growth by 50% (IC50) were calculated using a dose-response curve. Cell survival was calculated using the following equation: Cell survival (%)=(OD of treated sample)/(OD of untreated sample)×100

[2] = test system: HepG2 cells (liver cancer); experiment: MTT cytotoxicity assay, HepG2; format: cell-based; conditions: Homo sapiens, HepG2, 48 h treatment, mean ± SD (n = 3), NA = no activity
Method: as §1

[3] = test system: LoVo cells (colon cancer); experiment: MTT cytotoxicity assay, LoVo; format: cell-based; conditions: Homo sapiens, LoVo, 48 h treatment, mean ± SD (n = 3), NA = no activity
Method: as §1

[4] = test system: MCF-7 cells (human breast cancer cell line); experiment: MTT cytotoxicity assay, MCF-7; format: cell-based; conditions: Homo sapiens, MCF7, 48 h treatment, mean ± SD (n = 3), NA = no activity
Method: as §1

[5] = test system: HUVEC (normal human umbilical vein endothelial cells); experiment: MTT cytotoxicity assay, HUVEC; format: cell-based; conditions: Homo sapiens, HUVEC, 48 h treatment, mean ± SD (n = 3), NA = no activity
Method: as §1

MCF-7 cells [6] = experiment: Cell cycle analysis by flow cytometry (propidium iodide); format: cell-based, human; conditions: 24 h, average ± SD, control 0.75 ± 0.07%
Method: Cell cycle analysis was conducted as previously described by Alqahtani and co-workers[35]. Briefly, MCF-7 cells were seeded in 6-well plates and incubated for 24 h before the addition of various concentrations (10, 20 and 30 µM) of compounds 6 and 10. After incubating for 24 h, the cells were harvested, washed, and resuspended in PBS. The cells were fixed with 70% ethanol at 4 °C for 4 h. The cells were then incubated with RNase (100 µg/mL) and PI (50 µg/mL) for 30 min in the dark. Flow cytometry analysis was performed using Cytomics FC 500 (Beckman Coulter, Brea, CA, USA).

MCF-7 cells [7] = experiment: Annexin V-FITC/PI apoptosis assay by flow cytometry; format: cell-based, human; conditions: 24 h, average ± SD, control 2.9 ± 0.84% (6) / 3.3 ± 0.28% (10)
Method: Apoptosis was measured using the Annexin V/PI detection kit (BioLegend, CA, USA), as per the manufacturer’s instructions. Briefly, MCF-7 cells were treated with different concentrations (10, 20 and 30 µM) of compounds 6 and 10 for 24 h. After treatment, the detached and adherent cells were collected, washed, and resuspended in 100 µL of 1X binding buffer. Then, 5 µL of Annexin V and 5 µL of PI were added to the resuspended cells. After incubating for 15 min in the dark, 400 µL of binding buffer was added to each tube and cell samples were analysed using Cytomics FC 500 (Beckman Coulter, Brea, CA, USA). Data collection and analysis were conducted using the CXP software V. 3.0 (Aspect, Phoenix, AZ, USA).

p53 [8] = experiment: RT-PCR, p53 mRNA expression in MCF-7 cells; format: cell-based, human; conditions: MCF-7, 10, 20 and 30 µM, 24 h, compared to control, β-actin internal control
Method: (§2) MCF-7 cells were cultured with different concentrations (10, 20 and 30 µM) of compounds 6 and 10 for 24 h, and the untreated cells were used as a control. The cells were lysed using Trizol reagent (Invitrogen, USA). Total RNA was extracted as per the manufacturer’s instructions. Total RNA was quantitated by taking 2 µL of resuspended RNA on a Nano drop spectrophotometer (Thermo Scientific, USA) and reverse transcribing an equal amount (1 µg) of RNA to make complementary deoxyribonucleic acid (cDNA) using a Super Script VILO cDNA synthesis Kit (Invitrogen), as per the manufacturer’s protocol, in a final volume of 20 µL. The mixture was incubated at 42 °C for 1 h. The generated cDNA (2 µL) was used to assess the mRNA expression of apoptotic genes, including caspase-7, Bax, Bcl-2, and p53. The actin gene was used as an internal control. RT-PCR was performed using 5x Firepol Master Mix ready to load (Solis BioDyne, Tartu, Estonia), as per the manufacturer’s instructions. The program was run as follows: initial denaturation at 95 °C for 5 min, denaturation at 95 °C for 30 s, annealing at 55 °C for 45 s, elongation at 72 °C for 45 s (30 cycles), and final extension at 72 °C for 10 min. The RT-PCR products were electrophoresed on a 1.2% agarose gel containing ethidium bromide, and the gel was imaged on a Licor machine.

Bax [9] = experiment: RT-PCR, Bax mRNA expression in MCF-7 cells; format: cell-based, human; conditions: MCF-7, 10, 20 and 30 µM, 24 h, compared to control, β-actin internal control
Method: as §2

caspase-7 [10] = experiment: RT-PCR, caspase-7 mRNA expression in MCF-7 cells; format: cell-based, human; conditions: MCF-7, 10, 20 and 30 µM, 24 h, compared to control, β-actin internal control
Method: as §2

Bcl-2 [11] = experiment: RT-PCR, Bcl-2 mRNA expression in MCF-7 cells; format: cell-based, human; conditions: MCF-7, 10, 20 and 30 µM, 24 h, compared to control, β-actin internal control
Method: as §2

p53 [12] = experiment: Western blot, p53 protein level in MCF-7 cells; format: cell-based, human; conditions: MCF-7, 10, 20 and 30 μM, 24 h, β-actin internal control
Method: (§3) MCF-7 cells were treated with compounds 6 and 10 for 24 h. The cells were then harvested and washed twice with 1x PBS, by adding lysis buffer containing 20 mM Tris (pH 7.5), 150 mM NaCl, 1 mM sodium ethylenediaminetetraacetic acid, 1 mM ethylene glycol-bis (β-aminoethyl ether)-N,N,N′,N′-tetraacetic acid, 1% Triton X100, 1 µg/mL leupeptin, and 100 µM phenylmethylsulphonyl fluoride, to prepare the total cell extract. The lysate was cooled on ice for 1 h and clarified by centrifugation at 13000 rpm at 4 °C for 15 min. The supernatants were collected. The protein concentrations of all the samples were determined using Bradford reagent (BioRad, Hercules, CA, USA). For western blot analysis, 30 − 35 µg of the total protein was loaded onto 10% sodium dodecyl sulphate-polyacrylamide gel and then transferred to a polyvinylidene fluoride membrane. The membrane was blocked with 5% bovine serum albumin in 0.1% Tween-tris-buffered saline (TBST) buffer for 2 h at room temperature, and then washed thrice with TBST. The membrane was incubated with primary antibodies for Bcl-2, p53, caspase7, Bax, and β-actin (1:200, Santa Cruz Biotechnology). […] It was then ready for immunodetection; the membrane was incubated with enhanced chemiluminescence western blotting detection reagents (Amersham, Pharmacia Biotech Inc., Piscataway, NJ, USA) and bands were obtained on exposing to X-ray films (Amersham).

Bax [13] = experiment: Western blot, Bax protein level in MCF-7 cells; format: cell-based, human; conditions: MCF-7, 10, 20 and 30 μM, 24 h, β-actin internal control
Method: as §3

caspase-7 [14] = experiment: Western blot, caspase-7 protein level in MCF-7 cells; format: cell-based, human; conditions: MCF-7, 10, 20 and 30 μM, 24 h, β-actin internal control
Method: as §3

Bcl-2 [15] = experiment: Western blot, Bcl-2 protein level in MCF-7 cells; format: cell-based, human; conditions: MCF-7, 10, 20 and 30 μM, 24 h, β-actin internal control
Method: as §3

Row | melting point [°C] | SMILES | IC50 [1] [µM] | IC50 [2] [µM] | IC50 [3] [µM] | IC50 [4] [µM] | IC50 [5] [µM] | proportion of sub-G1 phase cells (MCF-7 cells [6]; MCF-7, 10 µM) [%] | proportion of sub-G1 phase cells (MCF-7 cells [6]; MCF-7, 20 µM) [%] | proportion of sub-G1 phase cells (MCF-7 cells [6]; MCF-7, 30 µM) [%] | proportion of cells in early apoptosis (MCF-7 cells [7]; MCF-7, 10 µM) [%] | proportion of cells in early apoptosis (MCF-7 cells [7]; MCF-7, 20 µM) [%] | proportion of cells in early apoptosis (MCF-7 cells [7]; MCF-7, 30 µM) [%] | expression of p53 mRNA (p53 [8]) | expression of Bax mRNA (Bax [9]) | expression of caspase-7 mRNA (caspase-7 [10]) | expression of Bcl-2 mRNA (Bcl-2 [11]) | p53 protein level (p53 [12]) | Bax protein level (Bax [13]) | caspase-7 protein level (caspase-7 [14]) | Bcl-2 protein expression (Bcl-2 [15])
1 | > 350 | COc1cccc2c(=O)n(-c3ccc(S(N)(=O)=O)cc3)c(SCC(=O)Nc3ccccc3C)nc12 [Compound 6, 2-((8-Methoxy-4-oxo-3-(4-sulphamoylphenyl)-3,4-dihydroquinazolin-2-yl)thio)-N-(o-tolyl) acetamide] | 51.5 ± 1.36 | 45.6 ± 0.71 | 22.6 ± 0.86 | 20.2 ± 0.6 | 88.27 ± 0.32 | 3.35 ± 0.07 | 7.8 ± 0.14 | 22.85 ± 1.2 | 7.6 ± 1.4 | 11.4 ± 1.97 | 18.35 ± 2.4 | increased | increased | increased | downregulated | markedly increased | markedly increased | markedly increased | down-regulated
2 | 292 to 294 | CCc1cccc(NC(=O)CSc2nc3c(OC)cccc3c(=O)n2-c2ccc(S(N)(=O)=O)cc2)c1 [Compound 10, N-(3-Ethylphenyl)-2-((8-methoxy-4-oxo-3-(4-sulphamoylphenyl)-3,4-dihydroquinazolin-2-yl)thio) acetamide] | 48 ± 2.78 | 42.3 ± 1.59 | 22.3 ± 2.26 | 20.9 ± 0.4 | 32 ± 1.47 | 4.3 ± 0.28 |  | 30.6 ± 0.07 | 9.55 ± 0.2 |  | 16 ± 0.84 | increased | increased | increased | downregulated | markedly increased | markedly increased | markedly increased | down-regulated
